Data: patent US20260317312A1, “ISOXAZOLIDINES AS RIPK1 INHIBITORS AND USE THEREOF” (GENZYME CORPORATION, priority 2023, published 2026)

Tests used:
[1] = target: T1, hRIPK1 (aa 1-375) fusion protein (Homo sapiens, UniProt Q13546); test: Receptor-Interacting Protein Kinase 1 inhibition, ADP Glo assay (conversion of ATP to ADP due to autophosphorylation); assay type: biochemical; details: ATP 50 μM, 30 min preincubation, 240 min incubation, room temperature, DMSO 1%
T1 construct: hRIPK1 (aa 1-375) fusion protein
T1 sequence (Q13546 1-375): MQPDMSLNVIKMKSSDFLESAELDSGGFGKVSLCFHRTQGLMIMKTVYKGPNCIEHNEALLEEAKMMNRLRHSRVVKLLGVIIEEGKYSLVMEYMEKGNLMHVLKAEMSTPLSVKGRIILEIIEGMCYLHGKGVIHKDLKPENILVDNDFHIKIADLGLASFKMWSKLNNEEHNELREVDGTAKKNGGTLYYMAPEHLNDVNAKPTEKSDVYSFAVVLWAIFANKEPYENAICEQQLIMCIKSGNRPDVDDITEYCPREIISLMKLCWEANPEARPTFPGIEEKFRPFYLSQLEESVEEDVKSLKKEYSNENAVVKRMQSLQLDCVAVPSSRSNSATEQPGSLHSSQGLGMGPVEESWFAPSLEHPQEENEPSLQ
Procedure: The catalytic activity of RIPK1 was measured by monitoring the conversion of Adenosine triphosphate (ATP) to Adenosine diphosphate (ADP) due to autophosphorylation using an ADP-Glo kinase kit (Promega, catalog no. V9104).
In detail, 2 μl recombinantly produced hRIPK1 (aa 1-375) fusion protein (end concentration 3.6 μg/ml) and 2 μl compound (end concentration 33300-1.69 nM; DMSO end concentration 1%) were incubated for 30 minutes at room temperature and then 2 μl ATP (ADP Glo kit, end concentration 50 μM) were added. After another 240 minutes incubation at room temperature, 5 μl Promega ADP-Glo reagent I was added to quench the reaction and deplete unconsumed ATP. After an incubation period of 30 minutes, 10 μl Promega ADP-Glo detection reagent II was added resulting in conversion of ADP to ATP, which generates a light-reaction between luciferase and luciferin. Luminescence was quantified after 30 minutes with a Pherastar FS (BMG LABTECH, Ortenberg).
The adjustment was obtained by nonlinear regression using the Levenberg Marquardt algorithm.

U937 cells = test: Cellular assay in U937 cells to measure activity of RIPK1-inhibitors on cell death (necroptosis); assay type: cell-based; details: overnight (18 to 24 hrs), 37° C., MTS readout
From the text: Upon TNF-Receptor I ligation, Ser/Thr kinase RIPK1 is recruited to a transient receptor complex I. Upon modification of RIPK1 which promotes activation of RIPK1, complex lib can form, that involves recruitment of RIPK3 and MLKL (mixed lineage-kinase domain-like protein) which then translocates from the cytosol to the plasma membrane to execute cell death (Cai, Z. et al, Nat. Cell Biol. (2014)16:55-65).
Cell death was quantified in 96 well plates by determination of the amount of live cell using a CellTiter 96 Aqueous reagent (Promega), a calorimetric method to measure the number of live cells by reducing tetrazolium compound [3-(4,5-dimethylthiazol-2-yl)-5-(3-carboxymethoxyphenyl)-2-(4-sulfophenyl)-2H-tetrazolium, inner salt; MTS] into formazan. Absorbance of formazan was read at 490 nm. The inhibitory activity of the test compound was quantified in a concentration response curve (CRC) experiment.
Compounds were obtained as 10 mM stock solutions and were diluted 1 to 10 volumes with DMSO to yield a 1 mM solution. From this solution 2 μl were diluted with 998 μl growth medium. 100 μl of 2 μM compound solution was further diluted sequentially with a dilution factor of 2.5 by adding 150 μl growth medium. A total of 10 concentrations were tested ranging from 10 μM to 0.26 nM or from 1 μM to 0.07 nM.
U937 cells were cultured in RPM11640 Glutamax and 10% heat inactivated FBS. 50 μl cell suspension containing 1×10^6 cells/ml supplemented with 50 μM zVAD.fmk (Benzyloxycarbonyl-Val-Ala-Asp (Ome) fluoromethylketone) and 100 ng/ml recombinant human TNFα were dispensed in each well of a 96-well plate. 50 μl of compound dilutions (described in Cellular assay in U937 cells) were added and the cell suspension incubated overnight (18 to 24 hrs) at 37° C., 5% CO2 in a humidified atmosphere (95% rH). High (no compound) and low control (no TNFα, zVAD.fmk) were tested with 7 replicates; all compound concentrations were tested in duplicates on each experimental plate.
CellTiter 96 Aqueous reagent was mixed (100 μl PMS (phenazine methosulfate) solution/2 ml MTS (3-(4,5-[…])-5-(3-carboxymethoxyphenyl)-2-(4-sulfophenyl)-2H-tetrazolium, inner salt) solution) and 20 μl were added per well. After 4 hrs incubation at 37° C. (5% CO2 95% rH) optical density was measured at 490 nm on a microplate reader (Tecan Infinite M1000).
The % inhibition is expressed as percentage of the maximal inhibition value obtained in the absence of TNFα/zVAD.fmc.

[2] = Homo sapiens, U-937, TNFα/zVAD.fmk induced cell death (necroptosis)
[3] = TNFα/zVAD.fmk induced cell death (necroptosis)

| SMILES | IC50 [1] [nM] | IC50 (U937 cells; [2]) [nM] | IC50 (U937 cells; [3]) [nM] |
| --- | --- | --- | --- |
| NC(=O)c1ccnc(C2CCC(C(=O)N3OCC[C@H]3c3cc(F)cc(F)c3)C2)c1 (single isomer, unassigned) [Compound 114] | 132 | 816 | – |
| N#Cc1cc(F)cc([C@@H]2CCON2C(=O)C2CCC(COc3cc(C(N)=O)ncn3)C2)c1 (single isomer, unassigned) [Compound 115] | 53 | – | 842 |
| N#Cc1cc(F)cc([C@@H]2CCON2C(=O)C2CCCC(COc3cc(C(N)=O)ncn3)CC2)c1 (single isomer, unassigned) [Compound 128] | 20 | – | 691 |
| NC(=O)c1cc(OCC2CCC(C(=O)N3OCC[C@H]3c3cc(F)cc(F)c3)C2)ncn1 (single isomer, unassigned; stereoisomer 1) [Compound 118] | 20 | – | 137 |
| NC(=O)c1cc(OCC2CCCC(C(=O)N3OCC[C@H]3c3cc(F)cc(F)c3)CC2)ncn1 (single isomer, unassigned; stereoisomer 1) [Compound 122] | 17 | – | 30 |
| N#Cc1cc(F)cc([C@@H]2CCON2C(=O)C2CCCC(COc3cc(C(N)=O)ncn3)CC2)c1 (single isomer, unassigned; stereoisomer 1) [Compound 126] | 25 | – | 54 |
| N#Cc1cc(F)cc([C@@H]2CCON2C(=O)C2CCC(COc3cc(C(N)=O)ncn3)C2)c1 (single isomer, unassigned; stereoisomer 2) [Compound 116] | 23 | – | 377 |
| NC(=O)c1cc(OCC2CCC(C(=O)N3OCC[C@H]3c3cc(F)cc(F)c3)C2)ncn1 (single isomer, unassigned; stereoisomer 2) [Compound 119] | 29 | – | 388 |
| NC(=O)c1cc(OCC2CCCC(C(=O)N3OCC[C@H]3c3cc(F)cc(F)c3)CC2)ncn1 (single isomer, unassigned; stereoisomer 2) [Compound 123] | 14 | – | 24 |
| N#Cc1cc(F)cc([C@@H]2CCON2C(=O)C2CCCC(COc3cc(C(N)=O)ncn3)CC2)c1 (single isomer, unassigned; stereoisomer 2) [Compound 127] | 17 | – | 31 |
| N#Cc1cc(F)cc([C@@H]2CCON2C(=O)C2CCC(COc3cc(C(N)=O)ncn3)C2)c1 (single isomer, unassigned; stereoisomer 3) [Compound 117] | 50 | – | 675 |
| NC(=O)c1cc(OCC2CCC(C(=O)N3OCC[C@H]3c3cc(F)cc(F)c3)C2)ncn1 (single isomer, unassigned; stereoisomer 3) [Compound 120] | 32 | – | 336 |
| NC(=O)c1cc(OCC2CCCC(C(=O)N3OCC[C@H]3c3cc(F)cc(F)c3)CC2)ncn1 (single isomer, unassigned; stereoisomer 3) [Compound 124] | 21 | – | 81 |
| NC(=O)c1cc(OCC2CCC(C(=O)N3OCC[C@H]3c3cc(F)cc(F)c3)C2)ncn1 (single isomer, unassigned; stereoisomer 4) [Compound 121] | 30 | – | 755 |
| NC(=O)c1cc(OCC2CCCC(C(=O)N3OCC[C@H]3c3cc(F)cc(F)c3)CC2)ncn1 (single isomer, unassigned; stereoisomer 4) [Compound 125] | 39 | – | 347 |
| NC(=O)c1ccnc(N[C@H]2C[C@@H](C(=O)N3OCC[C@H]3c3cc(F)cc(F)c3)C2)n1 [Compound 1, cis-2-((3-((S)-3-(3,5-difluorophenyl)isoxazolidine-2-carbonyl)cyclobutyl)amino)pyrimidine-4-carboxamide] | 19 | 34 | – |
| N#Cc1ccnc(N[C@H]2C[C@@H](C(=O)N3OCC[C@H]3c3cc(F)cc(F)c3)C2)n1 [Compound 2, cis-2-((3-((S)-3-(3,5-difluorophenyl)isoxazolidine-2-carbonyl)cyclobutyl)amino)pyrimidine-4-carbonitrile] | 22 | 101 | – |
| COC(=O)c1ccnc(N[C@H]2C[C@@H](C(=O)N3OCC[C@H]3c3cc(F)cc(F)c3)C2)n1 [Compound 3, methyl cis-2-((3-((S)-3-(3,5-difluorophenyl)isoxazolidine-2-carbonyl)cyclobutyl)amino)pyrimidine-4-carboxylate] | 47 | 536 | – |
| NC(=O)c1ccnc(N[C@H]2C[C@H](C(=O)N3OCC[C@H]3c3cc(F)cc(F)c3)C2)n1 [Compound 4, trans-2-((3-((S)-3-(3,5-difluorophenyl)isoxazolidine-2-carbonyl)cyclobutyl)amino)pyrimidine-4-carboxamide] | 90 | 360 | – |
| C[C@]1(C(=O)N2OCC[C@H]2c2cc(F)cc(F)c2)C[C@@H](Nc2nccc(C#N)n2)C1 [Compound 5, cis-2-((3-((S)-3-(3,5-difluorophenyl)isoxazolidine-2-carbonyl)-3-methylcyclobutyl)amino)pyrimidine-4-carbonitrile] | 38 | 75 | – |
| C[C@]1(C(=O)N2OCC[C@H]2c2cc(F)cc(F)c2)C[C@@H](Nc2nccc(C(N)=O)n2)C1 [Compound 6, cis-2-((3-((S)-3-(3,5-difluorophenyl)isoxazolidine-2-carbonyl)-3-methylcyclobutyl)amino)pyrimidine-4-carboxamide] | 21 | 6 | – |
| C[C@]1(C(=O)N2OCC[C@H]2c2cncc(C#N)c2)C[C@@H](Nc2nccc(C(N)=O)n2)C1 [Compound 7, cis-2-((3-((S)-3-(5-cyanopyridin-3-yl)isoxazolidine-2-carbonyl)-3-methylcyclobutyl)amino)pyrimidine-4-carboxamide] | 23 | 336 | – |
| CCOC(=O)c1ncnc(N[C@H]2C[C@@](C)(C(=O)N3OCC[C@H]3c3cc(F)cc(F)c3)C2)c1F [Compound 8, ethyl cis-6-((3-((S)-3-(3,5-difluorophenyl)isoxazolidine-2-carbonyl)-3-methylcyclobutyl)amino)-5-fluoropyrimidine-4-carboxylate] | 25 | 196 | – |
| CCOC(=O)c1ncnc(Cl)c1N[C@H]1C[C@@](C)(C(=O)N2OCC[C@H]2c2cc(F)cc(F)c2)C1 [Compound 9, ethyl cis-6-chloro-5-((3-((S)-3-(3,5-difluorophenyl)isoxazolidine-2-carbonyl)-3-methylcyclobutyl)amino)pyrimidine-4-carboxylate] | 366 | 757 | – |
| N#Cc1cc(F)cc([C@@H]2CCON2C(=O)[C@H]2CC[C@@H](Nc3cc(C#N)ncn3)CC2)c1 [Compound 28, cis-6-((4-((S)-3-(3-cyano-5-fluorophenyl)isoxazolidine-2-carbonyl)cyclohexyl)amino)pyrimidine-4-carbonitrile] | 162 | – | – |
